According to patent publication US20220313677A1, “METHODS FOR TREATING LIVER DISORDERS USING FXR AGONISTS” (Novartis AG, priority 2016, published 2022):
In brackets after ≈: the same amount, converted by molar mass. Entries after “also recorded” stand apart in the source; their conditions may differ.

Assays:
[1] = Estimation of human efficacious dose from rat efficacious exposure and human PK; type: in vivo; conditions: human, plasma, oral; at dose of ~6 μg; read-out: Cmax at estimated human efficacious dose
Method: The human efficacy dose was calculated based on the efficacious exposure in the rat ANIT-induced disease model. Since the in vitro potency and protein binding between human and rat were similar, the EC80 exposure in human was assumed to be the same as that in rat (3.05 ng*h/mL).

FGF15 = experiment: Serum FGF15 (MSD assay) in chronic treatment rat ANIT model; type: in vivo
Method: Serum FGF15 levels were quantified using an FGF15 Meso Scale Discovery (MSD) assay. Mouse FGF15 antibody from R&D Systems (AF6755) was used both as capture and detection antibody in the assay. MSD SULFO-TAG NHS-Ester was used to label the FGF15 antibody. MSD standard 96-well plates were coated with the FGF15 capture antibody and the plates were blocked with MSD Blocker A (R93AA-2). After washing the plate with PBS+0.05% Tween 20, MSD diluent 4 was dispensed into each well and incubated for 30 min. 25 μl of calibrator dilutions or samples (serum or EDTA plasma) were dispensed into each well and incubated with shaking at RT. After washing, detection antibody was added and incubated with shaking for 1 h at RT. After washing and the addition of MSD Read buffer (R92TC-2), the plate was read on an MSD SECTOR Imager 6000. Plots of the standard curve and unknown samples were calculated using MSD data analysis software.
Activation of FXR in the ileum induces the expression of fibroblast growth factor 15 (FGF15 in rodent; FGF19 in human), a hormone that is secreted in the portal blood and signals to the liver to repress Cyp7a1 expression synergistically with SHP. The direct FXR-dependent induction of FGF15/19 along with FGF15/19's anti-cholestatic properties makes it a convenient serum biomarker for detecting target engagement of FXR agonists.

FGR5 = FGR5 effects
[2] = system: rat ANIT-induced cholestasis model; experiment: Chronic treatment rat ANIT model: serum markers of cholestasis and liver damage; type: in vivo; conditions: 14 days oral dosing; AST, ALT, bilirubin, bile acids in serum
Method: Rats were treated with alpha-naphthyl-isothiocyanate (ANIT) (0.1% w/w) in food for 3 days prior to treatment with the compound at the indicated doses or with vehicle control (“Veh”). A non-cholestatic control group was fed standard chow diet without ANIT, and serve as the non-cholestatic control animals (“Control”). After 14 days of oral dosing, the indicated analyte was measured in serum. LLQ, lower limit of quantitation. Mean±SEM; n=5.
(§1) Male Wistar rats were treated with ANIT (0.1% ANIT in chow diet) for 2 weeks. […] The serum samples were collected on day 14 for analysis of biomarkers of hepatobiliary injury (including ALT, AST, bilirubin and bile acids). The PK samples (pre-dose, 0.5, 1, 3, 7, 10 and 24 h, n=3/dose group) were taken on day 13 (at steady-state).

[3] = Safety and tolerability in clinical study; type: in vivo, human
Description: Elevated ALT resolved to within normal levels within 14 days and without intervention.

[4] = system: rat ANIT-induced cholestasis model; experiment: PK/PD modeling of effective exposure in rat ANIT model; type: in vivo; conditions: for IC80 (total bilirubin): 2-week rat ANIT chronic treatment model, serum total bilirubin, Inhibitory effect Imax model
Method: as §1
The mean biomarker data were compared to the PK data (average concentration at each dose) for the modeling. The IC80 was determined using the Inhibitory effect Imax model (effect C=0 at Imax, C=infinity at E0) built in Phoenix WinNonlin 6.3 software. […] Therefore, we chose to use a mean of the IC80 for the four biomarkers (total bilirubin, total bile acids, ALT and AST) as the IC80 for efficacy in this model. From these studies, the IC80 of LJN452 was 0.127 ng/ml and the corresponding AUCO-24h was 3.05 ng*h/ml (Table 1), and the corresponding efficacious dose is approximately 0.01 mg/kg (based on Table 1 and Table 2).
The PK samples (pre-dose, 0.5, 1, 3, 7, 10 and 24 h, n=3/dose group) were taken on day 13 (at steady-state). AUCO-24h was determined using Phoenix WinNonlin 6.3 software and the average concentrations were calculated from mean of AUCO-24h at each dose (divided the AUCO-24h by 24 h). The individual biomarker data were compared to the PK data (average concentration at each dose) for the modeling. Since the lowest dose (0.01 mg/kg) already approached maximal efficacy, the IC80 was chosen as the measurement of the efficacious exposure (Table 1). The IC80 was determined using the Inhibitory effect Imax model (effect C=0 at Imax, C=infinity at E0) built in Phoenix WinNonlin 6.3 software.

[5] = Multiple oral dose plasma pharmacokinetics in healthy subjects
[6] = Single oral dose plasma pharmacokinetics in healthy subjects; type: in vivo, human; conditions: fasted, mean
[7] = clinical studies; cited from earlier work
[8] = maximal drug effect, rat ANIT model
[9] = exposures for doses 10-100 μg normalized to 10 μg

In the case of `O=C(O)c1cc(F)c2nc(N3C4CC[C@H]3CC(OCc3c(-c5ccccc5OC(F)(F)F)noc3C3CC3)C4)sc2c1` (stereo partly drawn) [Compound A, 2-[(1R,3r,5S)-3-({5-cyclopropyl-3-[2-(trifluoromethoxy)phenyl]-1,2-oxazol-4-yl}methoxy)-8-azabicyclo[3.2.1]octan-8-yl]-4-fluoro-1,3-benzothiazole-6-carboxylic acid], the Cmax [1] is reported as about 0.2 ng/mL, the “serum FGF15” value (FGF15) is reported as “stimulated serum FGF15 expression; also recorded: Significant dose-dependent induction” and the FGR5 effects (FGR5) is reported as “no FGR5 effects”. The “dose from which hepatobiliary injury indicators improved” value [2] was at least 0.01 mg/kg, the FGF19 elevations (FGF19; 30 μg/day) was “consistent with pharmacological activity in NASH” and the FGF19 dose dependence (FGF19; single dose studies 10 μg to 1 mg) was “Dose-dependent increases”. The “ALP or bilirubin elevation” value ([3]; 100 μg repeated daily) was “no elevation”, the “findings in physical exam, vital signs or ECGs” value ([3]; clinical study) was “No significant findings” and the “tolerability in repeated daily administration” value ([3]; doses up to and including 60 μg) was “well tolerated”. The “IC80 (total bilirubin)” value [4] was 0.223 ng/mL (≈ 0.369 nM), the “IC80 (total bilirubin)” value ([4]; listed as LJN452) was 8.223 ng/mL (≈ 13.6 nM) and the “Imax (ALT)” value [4, 8] was 84.2 U/L. The “Imax (AST)” value [4, 8] was 140.3 U/L, the “Imax (total bile acids)” value [4, 8] was 125.5 µmol/L and the “Imax (total bilirubin)” value [4, 8] was 2.0 mg/dL. The “average AUCtau at day 13 for a dose level of 10 μg” value [5, 9] was 4.84 ng·h/mL, the “average Cmax at day 13 for a dose level of 10 μg” value [5, 9] was 0.32 ng/mL and the “dose proportionality of exposure (Cmax and AUC)” value ([5]; once daily dosing, dose range 10 μg to 100 μg) was “approximately dose-proportional increase; also recorded: approximately dose proportional increase”. For the same compound, the “time by which steady-state was reached” value ([5]; once daily oral dosing, trough levels) was at most 4 days, the AUCinf ([6]; single dose 10 μg) was 3.39 ng·h/mL and the AUClast ([6]; single dose 10 μg) was 2.79 ng·h/mL. For the same compound, the Cmax ([6]; single dose 10 μg) was 0.186 ng/mL, the T½ ([6]; single dose 10 μg) was 14.9 h and the AUCinf ([6]; single dose 30 μg) was 13.4 ng·h/mL. For the same compound, the AUClast ([6]; single dose 30 μg) was 12.7 ng·h/mL, the Cmax ([6]; single dose 30 μg) was 0.627 ng/mL and the T½ ([6]; single dose 30 μg) was 13.7 h. It also gave an AUCinf ([6]; single dose 100 μg) of 37.9 ng·h/mL, an AUClast ([6]; single dose 100 μg) of 34.8 ng·h/mL and a Cmax ([6]; single dose 100 μg) of 1.73 ng/mL. The T½ ([6]; single dose 100 μg) was 13.5 h, the AUCinf ([6]; single dose 300 μg) was 123 ng·h/mL and the AUClast ([6]; single dose 300 μg) was 119 ng·h/mL. The Cmax ([6]; single dose 300 μg) was 6.41 ng/mL, the T½ ([6]; single dose 300 μg) was 15.3 h and the AUCinf ([6]; single dose 1000 μg) was 482 ng·h/mL. It also gave an AUClast ([6]; single dose 1000 μg) of 416 ng·h/mL, a Cmax ([6]; single dose 1000 μg) of 22.1 ng/mL and a T½ ([6]; single dose 1000 μg) of 21.9 h. The AUCinf ([6]; single dose 3000 μg) was 933 ng·h/mL, the AUClast ([6]; single dose 3000 μg) was 888 ng·h/mL and the Cmax ([6]; single dose 3000 μg) was 54.2 ng/mL. The T½ ([6]; single dose 3000 μg) was 16.5 h.

In the case of `CC[C@H]1[C@@H](O)[C@@H]2[C@H](CC[C@]3(C)[C@@H]([C@H](C)CCC(=O)O)CC[C@@H]23)[C@@]2(C)CC[C@@H](O)C[C@@H]12` [OCA, 6α-ethyl-chenodeoxycholic acid], the pruritus [7] is listed as “increased pruritus”.
